Results on 4 compounds are retold here after article PMC9332833 (Cancers, 2022).

The subject of data set [1] is K562-MDR1 cells. Briefly: MTT viability test, K562-MDR1. Type of data set: cell-based, human. Particulars: for viability at 0.005 µM: 48 h, 0,005 µM; for IC50: MTT; for Cross-resistance of K562-MDR1 cells: MTT assay. The source says: The K562-MDR1 cell line was developed using increasing concentrations of the commonly used antimitotic drug vincristine on a polyclonal K562 population, as described earlier. […] The DMSO concentration in the culture was 0.1%. The vincristine dose was doubled every 2–3 weeks (at least twice for each experiment) after the cells reached confluence. Cell’s viability was above 90%, as confirmed by Muse Cell Analyzer (Merck Millipore, Burlington, MA, USA). The final concentration of vincristine reached was 0.1 μM. The increase in the K562-MDR1 population was confirmed by flow cytometry and PCR.
(§1) Cells were seeded in 96-well plates; after 24 h, medium with the appropriate drug concentration was added to each well. After 48 h, Tetrazolium Bromide (Sigma-Aldrich, St. Louis, MO, USA) was added to each well for 2–3 h. After that, cells were lysed and formazan crystals were dissolved. Absorbance was read using an iMark Microplate absorbance reader (Bio-Rad, Hercules, CA, USA). Results were calculated relative to cells treated with DMSO only. […]
(§2) Cells were seeded in 96-well plates at 7 × 10^3 cells/well in 50 µL of complete medium (for K562 or K562-MDR1) or at 50 × 10^3 cells/well in 50 µL of complete medium (CD34+ cells). After 24 hours, 50 µL of medium with the appropriate drug concentration was added to each well. The final DMSO concentration per well was 1% for K562 and K562-MDR1 and 0.1% for CD34+ cells. After 48 hours, 20 µL of Tetrazolium Bromide (Sigma-Aldrich, St. Louis, MO, USA) at a concentration of 5 mg/mL was added to each well. Cells were incubated for 2-3 hours in a cell culture incubator, and then 10% SDS with 1% HCl was added to each well to lyse the cells and dissolve the formazan crystals. Plates were […]
(In general: Formazan colour is commonly taken as a measure of viable cells.)

For data set [2], the system named is K562 cells. The data set can be described thus: MTT viability test, K562. It is filed as cell-based. The settings on record: Homo sapiens; for viability at 0.005 µM: K562, 48 h, 0,005 µM; for IC50: K562. On the procedure: CML cell line K562 CCL-243™ (BCR-ABL^+) was purchased from the ATCC® (Manassas, VA, USA). Cells were grown in RPMI 1640 medium containing HEPES (Biowest, Nuaillé, France) with 2 mM GlutaMAX (Gibco, Grand Island, NY, USA), supplemented with 10% fetal bovine serum (Sigma-Aldrich, St. Louis, MO, USA) and […] (Gibco, Grand Island, NY, USA) and 0.1 µM Vincristine (for K562-MDR1).
as §1, §2

Data set [3] relates to K562-MDR1 cells. Briefly: P-glycoprotein (CD243)/propidium iodide flow cytometry. It is filed as cell-based, human. The settings on record: 1 µM, 24 h; for Proportion of K562-MDR1 cells, mean value: DMSO control 33.6%; for viability at 1 µM: Homo sapiens, DMSO control 89.2%, read-out: Living cells (viability), mean value. On the procedure: BK124.1 or DMSO were added to cells and after 24 h incubation cells were harvested and stained with FITC Mouse Anti-Human P-glycoprotein (CD243) clone 17F9 (BD, Franklin Lakes, NJ, USA) or an appropriate isotype control. Propidium iodide was added to […]. Cells were analyzed on a BD FACSCalibur flow cytometer using CellQuest software (BD, Franklin Lakes, NJ, USA). […]
Flow cytometry analysis of CD243 (P-glycoprotein)
Cells were seeded at a concentration of 1-2 × 10^5 cells/mL in a 6- or 24-well plate. After 24 hours of pre-incubation, DMSO or test compounds in DMSO were added. The cells were then incubated for 24 hours. After this time, cells were harvested, washed with 0.5% BSA in PBS (Mg2+ and Ca2+ free), and labeled for 30 minutes on ice with FITC Mouse Anti-Human P-glycoprotein (CD243) clone 17F9 (BD, Franklin Lakes, NJ, USA) or an appropriate isotype control. Following incubation with the antibody, cells were stained with propidium iodide, washed with PBS and a nalyzed on a BD FACSCalibur flow cytometer using CellQuest software (BD, Franklin Lakes, NJ, USA). […]
Background: Flow cytometry measures light scatter and fluorescence of single cells or particles in a stream.

Data set [4] is described as follows: Body and organ weights in K562 xenograft mice.
Method: (§3) Eight-week-old female NOD.Cg-Prkdcscid Il2rgtm1Wjl/SzJ NSG mice (Jackson Laboratory, Bar Harbor, ME, USA) were injected subcutaneously into the dorsal fold with 1 × 10^6 K562 cells of the human chronic myeloid leukemia (CML) line in a final volume of 100 µL (0.5% of the mouse weight). On day 3 after cell administration, mice were randomly assigned to each group, and on days 4–17 of the experiment, the selected tested compounds and control solutions were administered intraperitoneally or orally. During the experiment, subcutaneous tumors and body weight were measured daily. Tumor growth during the experiment was measured with an electronic display caliper. The theoretical tumor volume [mm], was calculated according to the formula (a^2 × b) * 0.5, where a is the shorter tumor axis [mm] and b is the longer tumor axis [mm]. On day 26, the experiment was terminated: blood was collected and analyzed for cellular morphology and standard biochemistry metabolites. Tumors were weighed.
(§4) Control and treated mice were grouped according to the tested compounds and the scheme of their administrations (doses, administration frequencies, routes of administration) in the CML xenogeneic model obtained by subcutaneous transplantation of 1 × 10^6 cells of the human CML blast line K562 into mice NOD.Cg-Prkdcscid Il2rgtm1Wjl/SzJ (NSG).
(§5) Hydroxyurea K562 500 mg/kg, IP Aqua pro 1 x daily 8
Data set [5] has as its system K562 cells. The data set can be described thus: K562 xenogeneic mouse model, tumor growth. It is filed as in vivo, NSG mice. The method, then: Statistical analysis was performed using GraphPad Prism version 9.1.0. All in vitro experiments were performed in at least triplicate biological replicates and statistical results are expressed as mean ± standard deviation (SD). Statistical data of animal experiments are expressed as mean ± standard error of the mean (SEM). For experiments involving patients, the normality of the distribution was checked using the Shapiro–Wilk test and the statistical analysis was performed using one-way ANOVA with Dunnett’s post-test * p < 0.05, ** […], *** 0.001 > p > 0.0001, **** p < 0.0001.
Table S3. […] Control and
IP, intraperitoneal administration; O, orally

Data set [6] is described as follows: Blood morphology in K562 xenograft mice. The settings on record: 500 mg/kg IP daily 14 days, N=4.
Method: as §3, §4, §5
Where [7] appears, read: Homo sapiens, 48 h, mean ± SD, read-out: Viability in relation to control.
The mark [8] stands for this setting: 48 h, mean ± SD, read-out: Viability in relation to control.
[9] abbreviates: Homo sapiens, 48 h, 0,05 µM, 48 h, mean ± SD, read-out: Viability in relation to control.
The mark [10] stands for this setting: Homo sapiens, 48 h, 5 µM, 48 h, mean ± SD, read-out: Viability in relation to control.
[11] abbreviates: 500 mg/kg IP daily 14 days, mean ± SD, N=4.
Setting [12] is: mean ± SD, standard range 0.0-99.0.

Read-outs that look alike come from different tables or passages of the source.

With `CC[C@]1(O)C[C@H]2CN(CCc3c([nH]c4ccccc34)[C@@](C(=O)OC)(c3cc4c(cc3OC)N(C=O)[C@H]3[C@@](O)(C(=O)OC)[C@H](OC(C)=O)[C@]5(CC)C=CCN6CC[C@]43[C@@H]65)C2)C1` [vincristine], the viability (as a rule, a read-out of living cells in per cent, often relative to untreated cells) at 1 µM with K562-MDR1 cells [1] (Homo sapiens, 48 h, 0,1 µM, 48 h, mean ± SD, read-out: Viability in relation to control) was 94.3%; with K562-MDR1 cells [1] (Homo sapiens, 48 h, 1 µM, 48 h, mean ± SD, read-out: Viability in relation to control), 32.4%; in the data set on K562-MDR1 cells [3], 79.7%. Also, the viability at 0.001 µM with K562-MDR1 cells [1] (Homo sapiens, 48 h, 0,001 µM, 48 h, mean ± SD, read-out: Viability in relation to control) is 106%; in the data set on K562 cells [2] (K562, 48 h, 0,001 µM, 48 h, mean ± SD, read-out: Viability in relation to control), 76.6%. For the same compound, the figures for the viability at 0.005 µM with K562-MDR1 cells [1] (setting [7]) and in the data set with K562 cells [2] (setting [8]) were 111% and 32.6%, respectively. For the same compound, the IC50 (as a rule, the concentration that inhibits the measured activity by half) with K562-MDR1 cells [1] (Homo sapiens, 48 h) was 0.512 µM; in the data set on K562 cells [2] (MTT assay) it was 0.003 µM. The “Proportion of K562-MDR1 cells, mean value” in the data set on K562-MDR1 cells [3] is 37.0%.
On to `CC(=O)O[C@H]1C(=O)[C@@]2(C)[C@H]([C@H](OC(=O)c3ccccc3)[C@]3(O)C[C@H](OC(=O)[C@H](O)[C@@H](NC(=O)c4ccccc4)c4ccccc4)C(C)=C1C3(C)C)[C@]1(OC(C)=O)CO[C@@H]1C[C@@H]2O` [paclitaxel], for which the viability at 5 µM in the data set on K562-MDR1 cells [1] (setting [9]) turned out to be 89.9%; with K562-MDR1 cells [1] (Homo sapiens, 48 h, 0,5 µM, 48 h, mean ± SD, read-out: Viability in relation to control) it was 48.4%; with K562-MDR1 cells [1] (setting [10]) it was 44.3%. In addition, the results for the viability at 0.005 µM in the data set on K562-MDR1 cells [1] (setting [7]) and in the data set with K562 cells [2] (setting [8]) were 100% and 32.6%, respectively. This compound returned an IC50 in the data set with K562-MDR1 cells [1] (Homo sapiens, 48 h) of 7 µM. The “Cross-resistance of K562-MDR1 cells” value in the data set on K562-MDR1 cells [1] is recorded as “confirmed”. Also, the “Proportion of K562-MDR1 cells, mean value” with K562-MDR1 cells [3] is given as 33.7%. The viability at 1 µM in the data set on K562-MDR1 cells [3] was 77.2%.
In the case of `NC(=O)NO` [hydroxyurea, reference compound], in data set [4] (setting [11]), the Brain weight came out at 0.46 ± 0.02 g, the Heart weight came to 0.11 ± 0.03 g, the Kidneys weight worked out at 0.27 ± 0.04 g and the Liver weight was 1.16 ± 0.13 g. In data set [4] (setting [11]), this compound yielded a Lung weight of 0.25 ± 0.08 g and a Splean weight of 0.05 ± 0.01 g. Further, the “Total body weight course” value in data set [4] (doses as in Table S3, control mice gained mass in the last 5 days) was “began to lose large quantities of weight”. In addition, in the data set with K562 cells [5] (500 mg/kg IP daily 14 days, mean ± SD, N=4, tumor growth control 9.2±2.1), the Tumor weights came out at 1.8 ± 0.9 g. In addition, the “Tumor growth versus control groups” value in the data set with K562 cells [5] (BK124.1 20 or 30 mg/kg IP, imatinib 100 mg/kg orally, hydroxyurea 500 mg/kg IP, 1 x daily) is on record as “effectively inhibited”. In data set [6] (setting [12]), the GRA came to 26.0±7.6%, the LYMP is reported as 58.0±9.9% and the MON turned out to be 16.0±3.8%. For the same compound, in data set [6] (mean ± SD, standard range 1.1-18), the HGB was 13.1 ± 0.8 g/dL. Further, the WBC in data set [6] (mean ± SD, standard range 3.0-15) is 8.1±4.3 103/μL. In addition, in data set [6] (mean ± SD, standard range 4.6-7.3), the MPV was found to be 3.6±4.3 μm3. Further, the RBC in data set [6] (mean ± SD, standard range 5.0-12) is recorded as 6.9±0.4 106/μL. Besides, the RDW in data set [6] (mean ± SD, standard range 11.5-14.5) was 17.3±0.6%. In data set [6] (mean ± SD, standard range 12-24.5), this compound showed an MCH of 18.9 ± 0.5 pg. Also, the MCHC in data set [6] (mean ± SD, standard range 21.6-42) stood at 31.5 ± 0.3 g/dL. In data set [6] (mean ± SD, standard range 36-52), this compound gave an HCT of 41.5±2.4%. Further, in data set [6] (mean, standard range 140-600), the PLT is listed as 1575.5 103/μL.
Consider `COc1cccc2c1C(=O)c1c(O)c3c(c(O)c1C2=O)C[C@@](O)(C(=O)CO)C[C@@H]3O[C@H]1C[C@H](N)[C@H](O)[C@H](C)O1` [doxorubicin], for which the viability at 5 µM in the data set on K562-MDR1 cells [1] (setting [9]) stood at 101%; in the data set with K562-MDR1 cells [1] (setting [10]) it was 45.1%. For the same compound, the values for the viability at 0.005 µM with K562-MDR1 cells [1] (setting [7]) and with K562 cells [2] (setting [8]) were 99.4% and 97.7%, respectively. Moreover, the IC50 with K562-MDR1 cells [1] (Homo sapiens, 48 h) amounted to 7 µM; in the data set on K562 cells [2] (MTT, 48 h) it was 3.7 µM. Further, the “Cross-resistance of K562-MDR1 cells” value in the data set on K562-MDR1 cells [1] is “confirmed”.
